Assay results from ChEMBL document CHEMBL3885881, “DrugMatrix”.

Species: Rattus norvegicus
Assay: DrugMatrix - Regimen: Daily Repeat
Assay type: toxicity, organism-based, Sprague-Dawley
Set-up: regimen Daily Repeat, gender Male, age 6-8 weeks
Settings: in vivo, po, route oral GAVAGE, […]; for ABSOLUTE BASOPHIL / ABSOLUTE EOSINOPHIL / ABSOLUTE LYMPHOCYTE / ABSOLUTE MONOCYTE / ABSOLUTE SEGMENTED NEUTROPHIL / BASOPHIL / EOSINOPHIL / ERYTHROCYTE COUNT / HEMATOCRIT / HEMOGLOBIN / LEUKOCYTE COUNT / LYMPHOCYTE / MEAN CORPUSCULAR HEMOGLOBIN / MEAN CORPUSCULAR HEMOGLOBIN CONCENTRATION / MEAN CORPUSCULAR VOLUME / MONOCYTE / NEUTROPHIL / NUCLEATED RED BLOOD CELLS / PLATELET COUNT: tissue Blood; for ALANINE AMINOTRANSFERASE / ALBUMIN / ALKALINE PHOSPHATASE / ASPARTATE AMINOTRANSFERASE / BLOOD UREA NITROGEN / CARBON DIOXIDE / CHLORIDE / CHOLESTEROL / CREATINE PHOSPHOKINASE / CREATININE / GLUCOSE / LACTATE DEHYDROGENASE / LIPASE / PHOSPHORUS / POTASSIUM / SODIUM / TOTAL BILIRUBIN / TOTAL PROTEIN / URIC ACID: tissue Plasma
[1] = 0 mg/kg, 72 h, dose level Control, time 3 day
[2] = 0 mg/kg, 120 h, dose level Control, time 5 day
[3] = 13 mg/kg, 72 h, dose level Low, time 3 day
[4] = 13 mg/kg, 120 h, dose level Low, time 5 day

Compound: CC1=C(/C=C/C(C)=C/C=C/C(C)=C\C(=O)O)C(C)(C)CCC1 [ISOTRETINOIN]
- ABSOLUTE BASOPHIL [1]: 0 CELLS/uL
- ABSOLUTE EOSINOPHIL [1]: 0 CELLS/uL
- ABSOLUTE LYMPHOCYTE [1]: 8493 CELLS/uL
- ABSOLUTE MONOCYTE [1]: 127 CELLS/uL
- ABSOLUTE SEGMENTED NEUTROPHIL [1]: 896.67 CELLS/uL
- BASOPHIL [1]: 0%
- EOSINOPHIL [1]: 0%
- ERYTHROCYTE COUNT [1]: 5.53 x10E6/uL
- HEMATOCRIT [1]: 34.07%
- HEMOGLOBIN [1]: 13.28 G/DL
- LEUKOCYTE COUNT [1]: 9.52 x10E3/uL
- LYMPHOCYTE [1]: 89.17%
- MEAN CORPUSCULAR HEMOGLOBIN [1]: 24.07 pg
- MEAN CORPUSCULAR HEMOGLOBIN CONCENTRATION [1]: 39.03 G/DL
- MEAN CORPUSCULAR VOLUME [1]: 61.62 fL
- MONOCYTE [1]: 1.33%
- NEUTROPHIL [1]: 9.5%
- NUCLEATED RED BLOOD CELLS [1]: 0.17 /100WBC
- PLATELET COUNT [1]: 1054.17 x10E3/uL
- ALANINE AMINOTRANSFERASE [1]: 77.67 u/L
- ALBUMIN [1]: 4.08 G/DL
- ALKALINE PHOSPHATASE [1]: 404.5 u/L
- ASPARTATE AMINOTRANSFERASE [1]: 83.17 u/L
- BLOOD UREA NITROGEN [1]: 14.33 mg/dL
- CARBON DIOXIDE [1]: 33.17 mmol/L
- CHLORIDE [1]: 101 MEQ/L
- CHOLESTEROL [1]: 76.33 mg/dL
- CREATINE PHOSPHOKINASE [1]: 184.5 u/L
- CREATININE [1]: 0.13 mg/dL
- GLUCOSE [1]: 163.67 mg/dL
- LACTATE DEHYDROGENASE [1]: 130.33 u/L
- LIPASE [1]: 11 u/L
- PHOSPHORUS [1]: 9.27 mg/dL
- POTASSIUM [1]: 6.26 MEQ/L
- SODIUM [1]: 143.57 MEQ/L
- TOTAL BILIRUBIN [1]: 0.18 mg/dL
- TOTAL PROTEIN [1]: 5.82 G/DL
- URIC ACID [1]: 1.38 mg/dL
- ABSOLUTE BASOPHIL [2]: 0 CELLS/uL
- ABSOLUTE EOSINOPHIL [2]: 0 CELLS/uL
- ABSOLUTE LYMPHOCYTE [2]: 8546.17 CELLS/uL
- ABSOLUTE MONOCYTE [2]: 49.5 CELLS/uL
- ABSOLUTE SEGMENTED NEUTROPHIL [2]: 554.33 CELLS/uL
- BASOPHIL [2]: 0%
- EOSINOPHIL [2]: 0%
- ERYTHROCYTE COUNT [2]: 5.36 x10E6/uL
- HEMATOCRIT [2]: 33.38%
- HEMOGLOBIN [2]: 13.2 G/DL
- LEUKOCYTE COUNT [2]: 9.15 x10E3/uL
- LYMPHOCYTE [2]: 93.17%
- MEAN CORPUSCULAR HEMOGLOBIN [2]: 24.68 pg
- MEAN CORPUSCULAR HEMOGLOBIN CONCENTRATION [2]: 39.58 G/DL
- MEAN CORPUSCULAR VOLUME [2]: 62.38 fL
- MONOCYTE [2]: 0.5%
- NEUTROPHIL [2]: 6.33%
- NUCLEATED RED BLOOD CELLS [2]: 0.17 /100WBC
- PLATELET COUNT [2]: 1099.33 x10E3/uL
- ALANINE AMINOTRANSFERASE [2]: 62.33 u/L
- ALBUMIN [2]: 4.1 G/DL
- ALKALINE PHOSPHATASE [2]: 419 u/L
- ASPARTATE AMINOTRANSFERASE [2]: 83.17 u/L
- BLOOD UREA NITROGEN [2]: 15.5 mg/dL
- CARBON DIOXIDE [2]: 33.17 mmol/L
- CHLORIDE [2]: 98 MEQ/L
- CHOLESTEROL [2]: 58.33 mg/dL
- CREATINE PHOSPHOKINASE [2]: 393.17 u/L
- CREATININE [2]: 0.18 mg/dL
- GLUCOSE [2]: 163 mg/dL
- LACTATE DEHYDROGENASE [2]: 111.5 u/L
- LIPASE [2]: 9.5 u/L
- PHOSPHORUS [2]: 10.02 mg/dL
- POTASSIUM [2]: 5.73 MEQ/L
- SODIUM [2]: 143.65 MEQ/L
- TOTAL BILIRUBIN [2]: 0.2 mg/dL
- TOTAL PROTEIN [2]: 5.85 G/DL
- URIC ACID [2]: 0.78 mg/dL
- ABSOLUTE BASOPHIL [3]: 0 CELLS/uL
- ABSOLUTE EOSINOPHIL [3]: 0 CELLS/uL
- ABSOLUTE LYMPHOCYTE [3]: 5796.67 CELLS/uL
- ABSOLUTE MONOCYTE [3]: 69.67 CELLS/uL
- ABSOLUTE SEGMENTED NEUTROPHIL [3]: 533.67 CELLS/uL
- BASOPHIL [3]: 0%
- EOSINOPHIL [3]: 0%
- ERYTHROCYTE COUNT [3]: 5.14 x10E6/uL
- HEMATOCRIT [3]: 32.4%
- HEMOGLOBIN [3]: 12.5 G/DL
- LEUKOCYTE COUNT [3]: 6.4 x10E3/uL
- LYMPHOCYTE [3]: 90.67%
- MEAN CORPUSCULAR HEMOGLOBIN [3]: 24.33 pg
- MEAN CORPUSCULAR HEMOGLOBIN CONCENTRATION [3]: 38.63 G/DL
- MEAN CORPUSCULAR VOLUME [3]: 63.07 fL
- MONOCYTE [3]: 1%
- NEUTROPHIL [3]: 8.33%
- NUCLEATED RED BLOOD CELLS [3]: 0 /100WBC
- PLATELET COUNT [3]: 977.33 x10E3/uL
- ALANINE AMINOTRANSFERASE [3]: 80.33 u/L
- ALBUMIN [3]: 3.7 G/DL
- ALKALINE PHOSPHATASE [3]: 427.67 u/L
- ASPARTATE AMINOTRANSFERASE [3]: 93.33 u/L
- BLOOD UREA NITROGEN [3]: 12 mg/dL
- CARBON DIOXIDE [3]: 35 mmol/L
- CHLORIDE [3]: 101.33 MEQ/L
- CHOLESTEROL [3]: 70.33 mg/dL
- CREATINE PHOSPHOKINASE [3]: 298 u/L
- CREATININE [3]: 0.1 mg/dL
- GLUCOSE [3]: 159.67 mg/dL
- LACTATE DEHYDROGENASE [3]: 103.33 u/L
- LIPASE [3]: 9.33 u/L
- PHOSPHORUS [3]: 9.4 mg/dL
- POTASSIUM [3]: 5.18 MEQ/L
- SODIUM [3]: 146.37 MEQ/L
- TOTAL BILIRUBIN [3]: 0.23 mg/dL
- TOTAL PROTEIN [3]: 5.77 G/DL
- URIC ACID [3]: 0.43 mg/dL
- ABSOLUTE BASOPHIL [4]: 0 CELLS/uL
- ABSOLUTE EOSINOPHIL [4]: 25 CELLS/uL
- ABSOLUTE LYMPHOCYTE [4]: 7680.33 CELLS/uL
- ABSOLUTE MONOCYTE [4]: 0 CELLS/uL
- ABSOLUTE SEGMENTED NEUTROPHIL [4]: 428 CELLS/uL
- BASOPHIL [4]: 0%
- EOSINOPHIL [4]: 0.33%
- ERYTHROCYTE COUNT [4]: 5.2 x10E6/uL
- HEMATOCRIT [4]: 33.33%
- HEMOGLOBIN [4]: 13.23 G/DL
- LEUKOCYTE COUNT [4]: 8.13 x10E3/uL
- LYMPHOCYTE [4]: 94.33%
- MEAN CORPUSCULAR HEMOGLOBIN [4]: 25.47 pg
- MEAN CORPUSCULAR HEMOGLOBIN CONCENTRATION [4]: 39.7 G/DL
- MEAN CORPUSCULAR VOLUME [4]: 64.1 fL
- MONOCYTE [4]: 0%
- NEUTROPHIL [4]: 5.33%
- NUCLEATED RED BLOOD CELLS [4]: 0 /100WBC
- PLATELET COUNT [4]: 1135 x10E3/uL
- ALANINE AMINOTRANSFERASE [4]: 75.67 u/L
- ALBUMIN [4]: 3.67 G/DL
- ALKALINE PHOSPHATASE [4]: 483 u/L
- ASPARTATE AMINOTRANSFERASE [4]: 105.33 u/L
- BLOOD UREA NITROGEN [4]: 12.33 mg/dL
- CARBON DIOXIDE [4]: 32 mmol/L
- CHLORIDE [4]: 98.67 MEQ/L
- CHOLESTEROL [4]: 57 mg/dL
- CREATINE PHOSPHOKINASE [4]: 433.67 u/L
- CREATININE [4]: 0.15 mg/dL
- GLUCOSE [4]: 156.67 mg/dL
- LACTATE DEHYDROGENASE [4]: 119.33 u/L
- LIPASE [4]: 9 u/L
- PHOSPHORUS [4]: 10.47 mg/dL
- POTASSIUM [4]: 5.72 MEQ/L
- SODIUM [4]: 143.43 MEQ/L
- TOTAL BILIRUBIN [4]: 0.3 mg/dL
- TOTAL PROTEIN [4]: 5.7 G/DL
- URIC ACID [4]: 0.67 mg/dL
